# How the values were obtained:
# CCRF-CEM [1] = assay: Anti-HIV activity against HIV-1 infected CEM/0 cell lines.; type: functional, cell-based; conditions: Homo sapiens
# CCRF-CEM [2] = assay: Concentration required to reduce cell viability of CEM/0 cells by 50%; type: functional; conditions: Homo sapiens
# [3] = biological target: Human immunodeficiency virus type 1 reverse transcriptase (Human immunodeficiency virus 1, UniProt Q72547); assay: Inhibition of HIV-1 reverse transcriptase
# CEM-TK(-) = assay: Anti-HIV activity against HIV-2 infected CEM/TK- cell lines.; conditions: Homo sapiens
# JM1 [4] = assay: Anti-HIV activity against HIV-1 infected JM cell lines; type: functional, cell-based
# CCRF-CEM [5] = assay: Anti-HIV activity against HIV-2 infected CEM/0 cell lines.; type: functional, cell-based; conditions: Homo sapiens
# JM1 [6] = assay: Concentration required to reduce cell viability of JM cells by 50%; type: functional, Homo sapiens
# C8166 [7] = assay: Anti-HIV activity against HIV-1 infected C8166 cell lines; type: functional, cell-based, Human immunodeficiency virus 1
# C8166 [8] = assay: Cytotoxicity in C8166 cell lines; type: functional, Homo sapiens
# C8166 [9] = assay: Concentration of compound required to reduce cell viability of C8166 cells by 50%; type: functional; conditions: Homo sapiens
# MT2 [10] = assay: Concentration required to reduce cell viability of MT2 cells by 50%; type: functional; conditions: Homo sapiens
# MT2 [11] = assay: Anti-HIV activity against HIV-2 infected MT2 cell lines; type: functional, cell-based, Homo sapiens
SMILES,EC50 (CCRF-CEM [1]) [µM],IC50 [3] [µM],EC50 (CEM-TK(-)) [µM],"EC50 (JM1 [4]; Homo sapiens, JM1) [µM]",EC50 (CCRF-CEM [5]) [µM],"EC50 (C8166 [7]; Homo sapiens, C8166) [µM]","EC50 (MT2 [11]; Homo sapiens, MT2) [µM]",EC50 (JM1 [4]; jm1) [µM],EC50 (C8166 [7]; c8166) [µM],EC50 (MT2 [11]; mt2) [µM],CC50 (CCRF-CEM [2]) [µM],"CC50 (JM1 [6]; Homo sapiens, JM1) [µM]","CC50 (C8166 [8]; Homo sapiens, C8166) [µM]",CC50 (C8166 [9]) [µM],CC50 (MT2 [10]) [µM],CC50 (JM1 [6]) [µM],CC50 (C8166 [8]) [µM]
CC1=CN([C@H]2C[C@H](O)[C@@H](COC(=O)C[C@@]3(C)C[C@@](C)(O)CO3)O2)C(=O)NC1,,,,40,,8,4,,,,,> 500,> 500,,> 1000,,
Cc1cn([C@H]2C[C@H](O[Si](C)(C)C(C)(C)C)[C@@H](CO)O2)c(=O)[nH]c1=O,,,,20,,16,,,,,,400,400,,,,
CSCOC1(C)COC(C)(CC(=O)NC[C@@H]2C=C[C@H](n3cc(C)c(=O)[nH]c3=O)O2)C1 (some centres undefined),,,,500,,400,200,,,,,> 1000,> 1000,,> 1000,,
CSCOC1(C)COC(C)(CC(=O)O)C1 (centres undefined),> 250,> 100,> 250,> 1000,> 250,> 1000,,,,,> 250,> 1000,> 1000,,,,
Cc1cn([C@H]2C[C@H](N=[N+]=[N-])[C@@H](COC(=O)CC3(C)CC(C)(O)CO3)O2)c(=O)[nH]c1=O (stereo in doubt; 13),,,,,,,,200,0.04,,,,,,,1000,500
Cc1cn([C@H]2C[C@H](O[Si](C)(C)C(C)(C)C)[C@@H](COC(=O)CC3(C)CC(C)(O)CO3)O2)c(=O)[nH]c1=O (stereo in doubt; form 1),,,,20,,20,20,,,,,200,200,,200,,
Cc1cn([C@H]2C=C[C@@H](CNC(=O)CC3(C)CC(C)(O)CO3)O2)c(=O)[nH]c1=O (stereo in doubt; form 1),,,,,,500,500,200,,,,> 500,> 500,,> 500,,
Cc1cn([C@H]2C[C@H](O[Si](C)(C)C(C)(C)C)[C@@H](COC(=O)CC3(C)CC(C)(O)CO3)O2)c(=O)[nH]c1=O (stereo in doubt; form 2),,,,,,,,10,10,10,,,,,,,
Cc1cn([C@H]2C=C[C@@H](CNC(=O)CC3(C)CC(C)(O)CO3)O2)c(=O)[nH]c1=O (stereo in doubt; form 2),,,,,,,,500,> 500,> 500,,,,,,,
Cc1cn([C@H]2C[C@H](N=[N+]=[N-])[C@@H](CO)O2)c(=O)[nH]c1=O [ZIDOVUDINE],,> 100,> 250,200,,,,,,,> 250,> 1000,> 1000,,,,

# Now from value to compound, other results behind:
EC50 (CCRF-CEM [1]) [µM],IC50 [3] [µM],EC50 (CEM-TK(-)) [µM],"EC50 (JM1 [4]; Homo sapiens, JM1) [µM]",EC50 (CCRF-CEM [5]) [µM],"EC50 (C8166 [7]; Homo sapiens, C8166) [µM]","EC50 (MT2 [11]; Homo sapiens, MT2) [µM]",EC50 (JM1 [4]; jm1) [µM],EC50 (C8166 [7]; c8166) [µM],EC50 (MT2 [11]; mt2) [µM],SMILES,CC50 (CCRF-CEM [2]) [µM],"CC50 (JM1 [6]; Homo sapiens, JM1) [µM]","CC50 (C8166 [8]; Homo sapiens, C8166) [µM]",CC50 (C8166 [9]) [µM],CC50 (MT2 [10]) [µM],CC50 (JM1 [6]) [µM],CC50 (C8166 [8]) [µM]
200,> 100,> 250,200,88,200,,,,,CSCO[C@@]1(C)CO[C@@](C)(CC(=O)OC[C@H]2O[C@@H](n3cc(C)c(=O)[nH]c3=O)C[C@@H]2O)C1,> 250,400,1000,,,,
> 10,> 100,,16,> 10,16,,,,,CSCO[C@@]1(C)CO[C@@](C)(CC(=O)OC[C@H]2O[C@@H](n3cc(C)c(=O)[nH]c3=O)C[C@@H]2O[Si](C)(C)C(C)(C)C)C1,36,80,80,,,,
6,> 100,> 250,200,3.1,16,,,,,CSCO[C@@]1(C)CO[C@](C)(CC(=O)OC[C@H]2O[C@@H](N3C=C(C)CNC3=O)C[C@@H]2O)C1,> 250,400,,400,,,
,,,500,,> 1000,1000,,,,Cc1cn([C@H]2C[C@H](O)[C@@H](COC(=O)C[C@@]3(C)C[C@@](C)(O)CO3)O2)c(=O)[nH]c1=O,,> 1000,> 1000,,> 1000,,
0.2,> 100,> 250,100,0.14,0.32,,,,,CSCOC1(C)COC(C)(CC(=O)OC[C@H]2O[C@@H](n3cc(C)c(=O)[nH]c3=O)C[C@@H]2N=[N+]=[N-])C1 (some centres undefined),233,500,,500,,,
,,,,,,,100,0.064,0.064,Cc1cn([C@H]2C[C@H](N=[N+]=[N-])[C@@H](COC(=O)CC3(C)CC(C)(O)CO3)O2)c(=O)[nH]c1=O (stereo in doubt; form 1),,,,,,> 1000,
,,,,,,,400,8,4,Cc1cn([C@H]2C[C@H](N=[N+]=[N-])[C@@H](COC(=O)CC3(C)CC(C)(O)CO3)O2)c(=O)[nH]c1=O (stereo in doubt; form 2),,,> 1000,,> 1000,400,
